We go through one compound from ChEMBL document CHEMBL4680347, “Discovery of novel 1,3,5-triazine derivatives as potent inhibitor of cervical cancer via dual inhibition of PI3K/mTOR” (Bioorg Med Chem, 2021).

Each structure is given as a SMILES string.

Assay [1] concerns the target Phosphatidylinositol 4,5-bisphosphate 3-kinase catalytic subunit beta isoform (Homo sapiens, UniProt P42338). The assay is described as follows: Inhibition of PI3Kbeta (unknown origin) measured after 1 hr by ADP-glo plus luminescence assay. On the technique in general: ADP-Glo first removes unused ATP, then detects ADP through luciferase.
Assay [2] addresses T1, Phosphatidylinositol 4,5-bisphosphate 3-kinase catalytic subunit delta isoform (Homo sapiens, UniProt O00329).
T1 sequence (O00329 whole entry): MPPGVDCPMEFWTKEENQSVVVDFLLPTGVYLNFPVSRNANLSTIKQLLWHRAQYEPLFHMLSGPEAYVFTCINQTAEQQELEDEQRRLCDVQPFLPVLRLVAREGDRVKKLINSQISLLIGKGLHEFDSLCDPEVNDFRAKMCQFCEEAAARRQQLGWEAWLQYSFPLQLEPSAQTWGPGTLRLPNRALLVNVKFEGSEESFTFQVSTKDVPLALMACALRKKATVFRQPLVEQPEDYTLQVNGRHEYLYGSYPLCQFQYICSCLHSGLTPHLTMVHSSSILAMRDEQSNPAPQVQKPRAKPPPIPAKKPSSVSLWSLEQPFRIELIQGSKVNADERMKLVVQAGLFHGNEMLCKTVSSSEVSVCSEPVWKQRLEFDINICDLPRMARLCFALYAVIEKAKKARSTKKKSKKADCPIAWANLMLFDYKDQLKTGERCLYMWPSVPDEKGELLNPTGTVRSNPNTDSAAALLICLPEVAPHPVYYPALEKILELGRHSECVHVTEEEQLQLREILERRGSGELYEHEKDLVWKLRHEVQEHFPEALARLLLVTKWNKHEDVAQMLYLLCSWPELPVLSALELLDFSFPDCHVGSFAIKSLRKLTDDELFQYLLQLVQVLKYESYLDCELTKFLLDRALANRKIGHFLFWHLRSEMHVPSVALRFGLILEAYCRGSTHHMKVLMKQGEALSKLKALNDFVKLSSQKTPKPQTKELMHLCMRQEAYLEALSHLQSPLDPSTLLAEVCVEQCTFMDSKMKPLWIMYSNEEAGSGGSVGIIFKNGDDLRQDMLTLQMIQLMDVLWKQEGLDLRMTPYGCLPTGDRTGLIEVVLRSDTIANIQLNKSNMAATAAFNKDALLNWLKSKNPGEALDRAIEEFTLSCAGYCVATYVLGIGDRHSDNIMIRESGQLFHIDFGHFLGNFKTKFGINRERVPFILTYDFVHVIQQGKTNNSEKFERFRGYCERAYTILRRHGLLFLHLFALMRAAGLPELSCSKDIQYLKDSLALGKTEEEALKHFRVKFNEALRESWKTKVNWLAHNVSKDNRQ
The assay is described as follows: Inhibition of PI3Kdelta (unknown origin) measured after 1 hr by ADP-glo plus luminescence assay.

The test system of the next assay is HepG2. Kind of assay: Anticancer activity against human HepG2 cells assessed as inhibition of cell proliferation measured after 48 hrs by MTT assay. Type of assay: functional, cell-based. The settings on record: HepG2, 48 h. A general note: Tetrazolium assays rely on reduction of a dye to a coloured formazan, in cell work by metabolically active cells.
The subject of assay [3] is HeLa. The assay is described as follows: Antiproliferative activity against human HeLa cells assessed as reduction in cell viability measured upto 12 uM by MTT assay. Format: functional, cell-based. The settings on record: dose microM <=12, time 24-72 hrs, TDE = time-dependent effect.
In assay [4] the test system is HeLa. The assay is described as follows: Induction of cell cycle arrest in human HeLa cells assessed as accumulation at G1 phase at 4 uM after 24 hrs by RNase A/PI-staining based flow cytometric analysis (reference value: 52.21%). Type of assay: functional. In general terms: Flow cytometry measures light scatter and fluorescence of single cells or particles in a stream.

In assay [5] the test system is HeLa. The assay is described as follows: Induction of cell cycle arrest in human HeLa cells assessed as accumulation at S phase at 4 uM after 24 hrs by RNase A/PI-staining based flow cytometric analysis (reference value: 17.17%). Type of assay: functional.
Assay [6] relates to HeLa. Kind of assay: Inhibition of cell migration in human HeLa cells incubated for 72 hrs by wound healing assay. Particulars: dose 4-12 µM. Type of assay: functional, cell-based.
The test system of assay [7] is HeLa. The assay is described as follows: Induction of apoptosis in human HeLa cells assessed as late apoptotic cells at 4 uM measured after 24 hrs by Annexin-V/FITC and propidium iodide staining based flow cytometry (reference value: 3.4%). Type of assay: functional.
In assay [8] the test system is HeLa. Kind of assay: Antitumor activity against human HeLa cells xenografted in orally dosed BALB/c mouse assessed as reduction in tumor volume measured for 24 days. Particulars: dose 5-15 mg/kg, time 24.0 day. Format: functional, organism-based.

Sequence of Phosphatidylinositol 4,5-bisphosphate 3-kinase catalytic subunit beta isoform (P42338 whole entry, canonical isoform): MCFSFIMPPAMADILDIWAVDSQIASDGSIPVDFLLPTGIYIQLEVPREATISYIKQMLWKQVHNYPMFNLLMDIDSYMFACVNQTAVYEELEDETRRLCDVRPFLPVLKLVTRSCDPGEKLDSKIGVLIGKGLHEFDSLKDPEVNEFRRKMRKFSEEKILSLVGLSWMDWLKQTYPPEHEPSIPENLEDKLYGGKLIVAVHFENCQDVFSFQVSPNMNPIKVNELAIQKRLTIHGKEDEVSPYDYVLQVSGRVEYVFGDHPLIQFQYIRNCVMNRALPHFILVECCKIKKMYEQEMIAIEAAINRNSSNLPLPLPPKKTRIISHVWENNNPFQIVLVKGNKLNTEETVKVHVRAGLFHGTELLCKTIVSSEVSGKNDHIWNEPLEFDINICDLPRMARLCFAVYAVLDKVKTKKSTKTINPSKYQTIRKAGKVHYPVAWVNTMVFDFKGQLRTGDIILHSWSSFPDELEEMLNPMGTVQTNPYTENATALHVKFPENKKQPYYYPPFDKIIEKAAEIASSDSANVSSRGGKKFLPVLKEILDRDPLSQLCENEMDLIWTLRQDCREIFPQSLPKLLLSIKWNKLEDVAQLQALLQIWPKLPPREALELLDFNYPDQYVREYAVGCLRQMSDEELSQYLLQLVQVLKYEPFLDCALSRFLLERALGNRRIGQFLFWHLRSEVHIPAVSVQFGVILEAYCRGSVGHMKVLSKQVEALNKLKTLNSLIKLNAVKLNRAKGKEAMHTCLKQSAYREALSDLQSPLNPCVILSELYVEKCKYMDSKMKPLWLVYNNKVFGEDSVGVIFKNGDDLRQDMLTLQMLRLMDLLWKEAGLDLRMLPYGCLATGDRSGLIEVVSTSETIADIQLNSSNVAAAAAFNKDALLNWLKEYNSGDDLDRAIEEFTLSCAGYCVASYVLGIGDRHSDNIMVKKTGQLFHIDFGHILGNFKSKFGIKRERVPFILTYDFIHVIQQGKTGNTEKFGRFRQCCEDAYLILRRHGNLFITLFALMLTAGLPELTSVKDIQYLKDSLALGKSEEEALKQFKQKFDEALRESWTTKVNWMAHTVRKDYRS

As to `O=S(=O)(c1ccc(O)cc1)N1CCN(c2nc(NCCN3CCOCC3)nc(N3CCOCC3)n2)CC1`, the IC50 in assay [1] is 12.3 nM; in assay [2], 35.3 nM; in the assay with HepG2, 12200 nM. The Activity result in the assay on HeLa [3] was “Tde”; with HeLa [4] it was 59.18%; in the assay with HeLa [5], 20.44%; with HeLa [6], “Dose-dependent effect”; in the assay on HeLa [7], 5.07%; in the assay on HeLa [8] it was “Dose-dependent effect”.

A word on the IC50: it is the point on the concentration scale where inhibition reaches its midpoint.
